In patent publication US6034120A, “Insect antifeedant for agriculture” (Morita Kaguku Kogyo Co., Ltd., priority 1997, dated 2000):
Entries after “also recorded” stand apart in the source; their conditions may differ.

Columns and labels:
[1] = system: Plutella maculipennis CURTIS; assay: test for an insecticidal effect (contact application); assay type: in vivo, Plutella maculipennis CURTIS larvae, third instar; conditions: for LD50: acetone solution applied to third instar larvae, 24 hours, probit method; for insecticidal effect / LD50 comparison (in words): versus scabequinone
Experimental: In order to test the insecticidal effect of remirol, methylremirol and scabequinone, acetone was added to each sample and the resulting acetone solution was applied to the third instar larvae of Plutella maculipennis CURTIS. Thereafter, Kaiwaredaikon (Raphanus sativus LINN, C.V. shijunichi) was fed to them as a feed and the number of survived larvae after 24 hours was counted. LD50 (lethal dose 50) was calculated by the probit method.

[2] = system: Spodoptera litura FABRICIUS; assay: antifeeding effect by the leaf disk method (antifeedant index); assay type: in vivo, Spodoptera litura FABRICIUS larvae, third or fourth instar; parameters: key to Antifeedant index (AFI): AFI = 100×T/(T+C); 50 = same as control, ≤30 = antifeeding; conditions: for Antifeedant index (AFI): 30 or less = antifeeding activity
Experimental: A test for an antifeeding effect on insects was conducted by the leaf disk method. After wiping off the surface of a leaf of Ipomoea batatas with acetone in order to remove extraneous matter on the leaf, a disk having a diameter of 2 cm was cut out with a cork borer, avoiding the veins of the leaf. An acetone solution containing the predetermined amount of samples was applied to the disk, which was sufficiently air-dried. As a control, the same amount of acetone solution was used, and applied to the leaf disk in the same manner as in the sample. Two pieces each of the sample and the control were placed crosswise in a petri dish, and 15 larvae of Spodoptera litura FABRICIUS were set in the petri dish to put on the lid. The Spodoptera litura FABRICIUS used was the third or fourth instar. This is because the younger the larvae, the greater the effect they receive due to allelochemical. The first or second instar larvae prefer to eat a tender portion of the leaf because they cannot eat hard veins or fiber of the leaf. On the other hand, the fifth or sixth instar larvae move the leafdisk because they are well-built. Further, the antifeeding effect due to allelochemical is lowered because they eat any portion of the leaf. Therefore, it is better not to use the fifth or sixth instar larvae.
The petri dish was allowed to stand in a thermostatic chamber at 25 to 27° C. under light. Two to 5 hours later, 4 pieces of the leaf were taken out to convert them into black and white pictures with a photocopier. Using a scanner, the disk area was digitized, and then the disk area was expressed numerically at the pixel unit on a Mackintosh computer using a free soft NIH image.
The method of calculating an antifeedant index (AFI) is as follows. First, a standard area of an intact leaf is calculated. The ratio of the area of the leaf consumed by the larvae to the standard area of the leaf was calculated.
Antifeedant index=100×T/(T+C)
T: Total percentage of treated disk consumed
C: Total percentage of control disk consumed
If this index is 30 or less, the tested leaf has antifeeding activity. […] When the consumed area of the sample and that of the control is the same, the antifeedant index indicates 50.
Concerning scabequinone, remirol, cyperaquinone and methylremirol, the AFI and FR were calculated according to the method for testing an antifeeding effect.

[3] = system: Tyrophagus putrescentiae SCHRANK; assay: dry film method in test tube, repelling of Tyrophagus putrescentiae; assay type: in vivo; conditions: 1 mg, 25° C., 1 day
Experimental: To 1 mg of cyperaquinone was added acetone and the resulting solution was charged in a test tube (a diameter of 1 cm). Thereafter, the solution was treated by the dry film method. (The method is as follows: a solution was charged at the bottom of a test tube. After applying the solution to the wall of the test tube, the solvent was removed to leave a sample on the wall of the test tube.) Fifty Tyrophagus putrescentiae SCHRANK were set in the test tube. After growing them at 25° C. for 1 day, the confirmation was conducted with a stereomicroscope.

[4] = system: plants; conditions: background statement; cited from earlier work
[5] = 1 mg/leaf, 50 = no difference from control

Structure (SMILES)	LD50 [1]	insecticidal effect / LD50 comparison (in words) [1]	Antifeedant index (AFI) [2, 5]	FR (consumed ratio of treated leaves) ([2]; 0.1 mg/leaf)	FR (consumed ratio of treated leaves) ([2]; 0.25 mg/leaf)	Antifeedant index (AFI) ([2]; 0.25 mg/leaf)	FR (consumed ratio of treated leaves) ([2]; 1 mg/leaf)	mortality (in words) [3]	repelling effect (in words) [3]	Antifeedant index (AFI) ([2]; 0.1 mg/leaf)	anti-breeding effect on the plants [4]	antifeeding effect (in words) ([2]; leaf disk method)
C=C(C)C1Cc2c(cc(OC)c(C(C)=O)c2OC)O1 (stereo not drawn) [methylremirol]	1.0 mg	superior to scabequinone in the insecticidal effect	0	–	–	–	–	–	–	–	–	–
C=C(C)C1Cc2c(cc(OC)c(C(C)=O)c2OC)O1 (racemic) [racemic methylremirol]	–	–	44.3	–	–	–	–	–	–	–	–	–
C=C(C)C1Cc2c(cc(OC)c(C(C)=O)c2O)O1 (stereo not drawn) [remirol]	0.125 mg	superior to scabequinone in the insecticidal effect	8.57	11.33	10.31	19.02	3.84	–	–	–	–	–
C=C(C)c1cc2c(o1)C(=O)c1occ(C)c1C2=O [cyperaquinone]	–	–	20.98	16.18	13.92	26.03	9.98	Some of the Tyrophagus putrescentiae SCHRANK were dead	had a repelling effect on Tyrophagus putrescentiae SCHRANK	–	–	–
C=C(C)C1Cc2c(OC)cc(OC)cc2O1 (stereo not drawn) [2-isopopenyl-4,6-methoxy-coumaran, 2-isopropenyl-4,6-methoxycoumaran]	–	–	26.1	–	–	–	–	–	–	–	–	–
O=c1c(O)c(-c2ccc(O)c(O)c2)oc2cc(O)cc(O)c12 [quercetin, reference compound]	–	–	2.07	15.96	13.07	25.08	0.66	–	–	25.04	–	–
O=C1C=CC(=O)c2c(O)cccc21 [juglone, reference compound]	–	–	0	0	0	0	0	–	–	0	strong anti-breedingeffect on the plants	–
Cc1coc2c1C(=O)C1=C(OCC(C(C)C)C1)C2=O (stereo not drawn) [scabequinone]	1.371 mg	–	0	1.61	0.47	2.16	–	–	–	4.22	–	did quite well in the antifeeding effect; also recorded: by far superior to another commercially available product quercetin
